{"source": "patent US20090264528A1", "about": "“SERINE PALMITOYLCOA TRANSFERASE (SPT) INHIBITION BY MYRIOCIN OR GENETIC DEFICIENCY DECREASES CHOLESTEROL ABSORPTION” (The Research Foundation of State University of New York, priority 2008, published 2009)", "key": {"ABCG8 mRNA": {"tested_on": "ABCG8 mRNA", "assay": "Real-time PCR, ABCG8 mRNA", "assay_type": "in vivo, mouse", "conditions": "for increase of ABCG8 mRNA levels compared with controls: small intestine, P<0.01", "experimental": "FIGS. 9A-F depict that Mouse small intestine and liver NPC1L1, ABCG5/G8, and ABCA1 mRNA measurements. NPC1L1, ABCG5/G8, and ABCA1 mRNA levels were measured by real-time PCR as described in “Methods and Materials.” FIG. 9A, jejunum from WT mice with or without myriocin treatment; FIG. 9B, jejunum from apoE KO mice with or without myriocin treatment; FIG. 9C, jejunum from WT and Sptlc1^+/− mice; FIG. 9D, liver from WT mice with or without myriocin treatment; FIG. 9E, liver from apoE KO mice with or without myriocin treatment; FIG. 9F, liver from WT and Sptlc1^+/− mice. Values are mean±SD, n=5. *P<0.01.\nReal-time PCR examined genes' expression: Mice were sacrificed by cervical dislocation. Jejunum was dissected, and total RNA extracted with Trizol (Invitrogen). cDNA was synthesized with an Invitrogen kit. Polymerase chain reaction (PCR) was performed on a total volume of 20 microl with the sybergreen kit from Applied Biosystems, 18S being used as an internal control. The amplification program consisted of activation at 95 degrees C. for 10 minutes, followed by 40 amplification cycles: 95 degrees C. for 15 seconds, 60 degrees C. for 1 minute. Each sample was triplicated. The genes' relative expression was expressed as mean±SD. The primers are located in the below table which lists the name, sequence, and sequence identification number.\nFor further elucidation of the possible mechanisms for cholesterol absorption reduction in the SPT-deficient small intestine, NPC1L1, ABCG5/G8, and ABCA1 mRNA levels in myriocin-treated WT, apoE KO, and Sptlc1^+/− mice, as well as in controls were measured. […] Moreover, intestinal MTP activity was not influenced by SPT deficiency (data not shown). Also, the liver mRNA levels were measured to find that myriocin treatment or Sptlc1 deficiency has no influence on ABCG5/G8 mRNA levels […]. […] NPC1L1 mRNA in WT or Sptlc1^+/− livers were not detected (data not shown)."}, "small intestine": {"tested_on": "small intestine", "assay": "Small intestine morphology, hematoxylin and eosin staining", "assay_type": "in vivo, mouse", "conditions": "WT and apoE KO mice after myriocin treatment", "from_the_text": "The small intestine was dissected out and put into 4% paraformaldehyde for fixation overnight. The tissue was then sliced (10 micrometer thick). Each slice was deparaffinized and stained with hematoxylin and eosin. The morphology was checked by microscope. WT mice fed chow diet (FIGS. 2A, 2B) or chow diet plus myriocin (FIGS. 2C, 2D). FIGS. 2A and 2C are at 10× magnification, while FIGS. 2B and 2D are at 40× magnification.\nThe small intestine was dissected out and put into 4% paraformaldehyde for fixation overnight. The tissue was then sliced (10 micrometer thick). Each slice was deparaffinized and stained with hematoxylin and eosin. The morphology was checked by microscope. apoE KO mice fed chow diet (FIGS. 3A, 3B) or chow diet plus myriocin (FIGS. 3C, 3D). FIGS. 3A and 3C are at 10× magnification, while FIGS. 3B and 3D are at 40× magnification.\nMouse small intestine hematoxylin and eosin staining: The small intestine was dissected out and put into 4% paraformaldehyde for fixation overnight. The tissue was then sliced (10 micro m thick). Each slice was deparaffinized and stained with hematoxylin and eosin.\nTo investigate whether myriocin treatment or Sptlc1^+/− had any impact on small intestine morphology, intestinal sections were stained with hematoxylin and eosin. As shown in FIGS. 2 through 4, neither myriocin treatment nor Sptlc1^+/− influenced the morphology of the small intestine."}, "[1]": {"tested_on": "apical membrane SM of small intestine segments", "assay": "In situ lysenin treatment and cell mortality measurement (WST-1)", "assay_type": "cell-based, mouse", "conditions": "jejunum segments from myriocin-treated WT mice, 5 microg/ml lysenin, 30 minutes", "experimental": "FIGS. 7A-B depict several graphs that illustrate that SPT deficiency decreased SM levels on the apical surface of mouse small intestine. Small intestines were turned inside-out and cut into 0.5 cm of segments from jejunum. The segments were then bathed in 0.5 ml of oxygenated DMEM containing 5% glutamine with 5 microg/ml lysenin or without it as control, at 37 degrees C. for 30 minutes. Then 0.05 ml of WST-1 cell proliferation reagent were added and continuously incubated at 37 degrees C. for 15 minutes. After incubation, solutions were transferred to an Eppendorf tube and quick-spun at maximum speed to pellet cell debris. Supernatants were read OD at 450 nm, a reading for viable cells. Background reading was the WST-1 reagent with no cell treatment. […]\nIn situ lysenin treatment and cell mortality measurement: Overnight-fasted mice were anesthetized and small intestines were isolated from WT animals with or without myriocin treatment, as well as sptlc1 KO and control mice. […] Supernatant was then measured OD at 450 nm, a reading for viable cells (WST-1 reagent with no cell incubation being the background reading). […]\nSecond, lysenin, a SM-specific cytotoxin, was used to measure apical membrane SM levels, since lysenin can recognize SM only when it forms aggregates or microdomains in the plasma membranes. […] Cell viability in tissue segments was measured by adding WST-1 cell proliferation reagent."}}, "note": "“Also recorded” adds a separate entry of the source."}
{"smiles": "CCCCCCC(=O)CCCCCC/C=C/C[C@@H](O)[C@H](O)[C@@](N)(CO)C(=O)O", "note": "[Myriocin, myriocin]", "values": [{"measurement": "ABCG8 mRNA levels (printed ABCG5/G8)", "setting": "ABCG8 mRNA; liver", "result": "no influence"}, {"measurement": "increase of ABCG8 mRNA levels compared with controls", "setting": "ABCG8 mRNA; WT mice", "result": 46, "unit": "%"}, {"measurement": "increase of ABCG8 mRNA levels compared with controls", "setting": "ABCG8 mRNA; apoE KO mice", "result": 63, "unit": "%"}, {"measurement": "morphology / pathological changes of the small intestine (gastrointestinal toxicity)", "setting": "small intestine", "result": "no pathological changes; also recorded: intact villi, epithelia, enterocytes, goblet cells, and brush borders"}, {"measurement": "sensitivity to lysenin-mediated cytolysis vs controls", "setting": "[1]", "result": "significantly less sensitivity"}]}
